Laboratory results reported in ChEMBL document CHEMBL5465560, “Selectivity Literature for EUbOPEN Chemogenomic Library” (2024).

Experiments:
[1] = molecular target: RAC-alpha serine/threonine-protein kinase (Homo sapiens, UniProt P31749); test: Selectivity interaction (KinomeScan (DiscoverX)) EUB0000666a AKT1; details: at 10 µM
[2] = molecular target: Vascular endothelial growth factor receptor 1 (Homo sapiens) (UniProt P17948); test: Selectivity interaction (KinomeScan (DiscoverX)) EUB0000045b FLT1
Sequence of Vascular endothelial growth factor receptor 1 (Homo sapiens) (P17948 whole entry): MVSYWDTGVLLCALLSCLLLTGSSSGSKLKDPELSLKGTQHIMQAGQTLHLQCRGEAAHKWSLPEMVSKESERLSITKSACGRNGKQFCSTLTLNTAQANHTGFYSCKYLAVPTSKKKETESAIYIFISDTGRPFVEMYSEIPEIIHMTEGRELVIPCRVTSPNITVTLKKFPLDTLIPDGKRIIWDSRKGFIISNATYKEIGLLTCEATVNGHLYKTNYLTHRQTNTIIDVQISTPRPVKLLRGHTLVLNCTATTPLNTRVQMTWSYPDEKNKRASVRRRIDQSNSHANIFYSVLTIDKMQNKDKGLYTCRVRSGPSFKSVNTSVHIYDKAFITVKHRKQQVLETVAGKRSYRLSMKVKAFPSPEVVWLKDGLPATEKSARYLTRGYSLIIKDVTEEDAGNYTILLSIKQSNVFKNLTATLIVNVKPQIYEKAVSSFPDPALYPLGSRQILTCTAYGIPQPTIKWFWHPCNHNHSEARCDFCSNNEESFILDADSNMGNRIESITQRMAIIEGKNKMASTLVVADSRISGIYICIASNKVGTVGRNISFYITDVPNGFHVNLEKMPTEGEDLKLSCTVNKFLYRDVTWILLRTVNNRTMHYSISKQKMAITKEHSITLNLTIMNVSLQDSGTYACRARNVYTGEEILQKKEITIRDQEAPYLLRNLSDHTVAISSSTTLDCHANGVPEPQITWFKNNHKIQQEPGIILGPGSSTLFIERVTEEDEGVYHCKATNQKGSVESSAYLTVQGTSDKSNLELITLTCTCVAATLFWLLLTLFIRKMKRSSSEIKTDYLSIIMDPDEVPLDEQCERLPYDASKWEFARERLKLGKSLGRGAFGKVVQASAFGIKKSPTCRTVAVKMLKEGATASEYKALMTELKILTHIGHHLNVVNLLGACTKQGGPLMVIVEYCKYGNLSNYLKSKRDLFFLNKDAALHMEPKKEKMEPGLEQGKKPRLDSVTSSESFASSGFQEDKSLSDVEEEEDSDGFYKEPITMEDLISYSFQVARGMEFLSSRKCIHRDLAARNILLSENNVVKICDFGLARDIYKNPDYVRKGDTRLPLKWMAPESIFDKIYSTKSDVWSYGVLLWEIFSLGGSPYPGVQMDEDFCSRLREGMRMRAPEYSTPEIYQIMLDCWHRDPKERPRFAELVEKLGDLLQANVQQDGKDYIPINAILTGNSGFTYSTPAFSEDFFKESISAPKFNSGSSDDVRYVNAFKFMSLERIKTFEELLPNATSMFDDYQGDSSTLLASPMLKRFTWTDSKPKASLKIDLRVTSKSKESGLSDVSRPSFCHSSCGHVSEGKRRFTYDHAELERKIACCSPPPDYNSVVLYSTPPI

[3] = molecular target: T1, Mitogen-activated protein kinase kinase kinase 5 (Homo sapiens) (UniProt Q99683); test: Selectivity interaction (KinomeScan (DiscoverX)) EUB0000092b MAP3K5; details: at 10 µM
T1 sequence (whole entry): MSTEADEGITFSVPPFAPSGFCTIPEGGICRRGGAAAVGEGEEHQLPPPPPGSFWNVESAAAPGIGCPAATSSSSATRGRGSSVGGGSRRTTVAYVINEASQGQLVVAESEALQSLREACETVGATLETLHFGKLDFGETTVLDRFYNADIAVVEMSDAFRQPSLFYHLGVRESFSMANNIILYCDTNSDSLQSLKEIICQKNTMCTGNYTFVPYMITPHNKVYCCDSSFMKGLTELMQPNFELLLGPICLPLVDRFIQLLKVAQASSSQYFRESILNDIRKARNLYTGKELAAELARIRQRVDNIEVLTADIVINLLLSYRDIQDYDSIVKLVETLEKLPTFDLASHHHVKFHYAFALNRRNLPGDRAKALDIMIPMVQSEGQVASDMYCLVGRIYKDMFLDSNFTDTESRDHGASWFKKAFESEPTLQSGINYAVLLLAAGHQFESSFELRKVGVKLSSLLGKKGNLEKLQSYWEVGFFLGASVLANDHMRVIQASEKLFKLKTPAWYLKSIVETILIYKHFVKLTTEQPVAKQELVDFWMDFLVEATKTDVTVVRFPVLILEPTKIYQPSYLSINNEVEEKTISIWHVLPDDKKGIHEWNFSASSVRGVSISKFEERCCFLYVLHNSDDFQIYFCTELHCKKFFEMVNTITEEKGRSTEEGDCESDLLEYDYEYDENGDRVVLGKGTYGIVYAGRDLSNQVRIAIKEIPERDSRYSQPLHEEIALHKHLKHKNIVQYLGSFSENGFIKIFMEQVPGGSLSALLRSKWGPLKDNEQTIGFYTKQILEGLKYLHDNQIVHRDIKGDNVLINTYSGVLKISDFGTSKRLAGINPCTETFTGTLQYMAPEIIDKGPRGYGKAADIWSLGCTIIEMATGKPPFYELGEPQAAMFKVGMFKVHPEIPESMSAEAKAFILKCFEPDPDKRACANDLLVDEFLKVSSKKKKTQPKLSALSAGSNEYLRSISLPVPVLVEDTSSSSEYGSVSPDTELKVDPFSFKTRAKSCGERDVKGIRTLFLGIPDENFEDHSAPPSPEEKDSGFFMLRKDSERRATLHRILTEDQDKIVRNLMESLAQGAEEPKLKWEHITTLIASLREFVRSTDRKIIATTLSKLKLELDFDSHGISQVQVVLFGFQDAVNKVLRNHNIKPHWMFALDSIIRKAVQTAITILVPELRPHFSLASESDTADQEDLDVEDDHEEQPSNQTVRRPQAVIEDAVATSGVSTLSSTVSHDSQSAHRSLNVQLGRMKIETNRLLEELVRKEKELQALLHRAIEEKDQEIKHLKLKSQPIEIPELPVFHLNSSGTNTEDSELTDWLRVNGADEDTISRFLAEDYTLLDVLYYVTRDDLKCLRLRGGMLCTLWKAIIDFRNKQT

[4] = molecular target: Tyrosine-protein kinase ABL2 (Homo sapiens, UniProt P42684); test: Selectivity interaction (KinomeScan (DiscoverX)) EUB0000092b ABL2; details: at 10 µM
Sequence of Tyrosine-protein kinase ABL2 (P42684 whole entry): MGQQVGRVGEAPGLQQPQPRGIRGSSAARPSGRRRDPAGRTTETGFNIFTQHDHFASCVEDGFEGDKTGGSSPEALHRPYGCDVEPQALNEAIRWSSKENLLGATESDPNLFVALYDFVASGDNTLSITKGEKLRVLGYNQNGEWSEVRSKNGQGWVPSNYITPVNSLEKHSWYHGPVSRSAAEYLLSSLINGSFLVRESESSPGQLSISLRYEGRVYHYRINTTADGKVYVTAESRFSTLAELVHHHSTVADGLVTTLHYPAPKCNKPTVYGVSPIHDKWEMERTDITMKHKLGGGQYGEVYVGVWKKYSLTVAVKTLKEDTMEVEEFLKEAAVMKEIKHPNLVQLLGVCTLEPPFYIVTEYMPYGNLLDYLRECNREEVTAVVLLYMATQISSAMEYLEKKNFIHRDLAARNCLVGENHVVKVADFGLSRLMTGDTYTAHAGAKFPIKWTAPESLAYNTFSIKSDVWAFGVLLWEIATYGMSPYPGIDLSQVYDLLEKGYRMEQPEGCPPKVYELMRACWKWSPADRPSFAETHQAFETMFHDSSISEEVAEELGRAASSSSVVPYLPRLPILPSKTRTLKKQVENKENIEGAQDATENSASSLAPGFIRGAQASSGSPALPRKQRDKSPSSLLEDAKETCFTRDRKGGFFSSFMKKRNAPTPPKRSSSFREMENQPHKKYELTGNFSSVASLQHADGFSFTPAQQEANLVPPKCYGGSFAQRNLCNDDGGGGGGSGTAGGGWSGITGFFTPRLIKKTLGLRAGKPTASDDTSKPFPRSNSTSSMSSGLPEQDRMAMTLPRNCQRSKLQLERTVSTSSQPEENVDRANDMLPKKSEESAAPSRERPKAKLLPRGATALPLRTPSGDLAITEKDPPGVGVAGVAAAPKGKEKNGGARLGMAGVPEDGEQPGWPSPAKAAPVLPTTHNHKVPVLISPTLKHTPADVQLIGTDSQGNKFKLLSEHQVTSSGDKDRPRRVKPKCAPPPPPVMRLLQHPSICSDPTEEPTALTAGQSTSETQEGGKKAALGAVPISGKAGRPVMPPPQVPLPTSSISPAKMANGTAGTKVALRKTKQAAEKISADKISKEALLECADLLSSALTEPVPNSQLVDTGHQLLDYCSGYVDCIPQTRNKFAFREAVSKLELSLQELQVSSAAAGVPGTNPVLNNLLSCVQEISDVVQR

[5] = molecular target: Tyrosine-protein kinase CSK (Homo sapiens) (UniProt P41240); details: at 10 µM
Sequence of Tyrosine-protein kinase CSK (Homo sapiens) (P41240 2-450 limits assumed): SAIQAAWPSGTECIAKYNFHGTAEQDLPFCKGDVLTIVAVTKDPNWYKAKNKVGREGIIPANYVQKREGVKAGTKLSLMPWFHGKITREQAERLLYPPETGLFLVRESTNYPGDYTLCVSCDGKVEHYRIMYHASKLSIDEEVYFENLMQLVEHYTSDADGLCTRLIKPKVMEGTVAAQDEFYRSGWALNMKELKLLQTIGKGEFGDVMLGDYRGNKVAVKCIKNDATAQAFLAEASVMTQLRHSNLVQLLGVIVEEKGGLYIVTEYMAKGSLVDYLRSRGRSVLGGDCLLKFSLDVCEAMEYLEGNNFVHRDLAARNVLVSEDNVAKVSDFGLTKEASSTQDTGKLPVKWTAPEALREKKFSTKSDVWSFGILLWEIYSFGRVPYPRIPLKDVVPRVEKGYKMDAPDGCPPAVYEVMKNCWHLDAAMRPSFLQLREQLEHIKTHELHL

[6] = molecular target: Interleukin-1 receptor-associated kinase 1 (Homo sapiens) (UniProt P51617); test: Selectivity interaction (KinomeScan (DiscoverX)) EUB0000618a IRAK1; details: at 10 µM
Sequence of Interleukin-1 receptor-associated kinase 1 (Homo sapiens) (P51617 whole entry, looked up): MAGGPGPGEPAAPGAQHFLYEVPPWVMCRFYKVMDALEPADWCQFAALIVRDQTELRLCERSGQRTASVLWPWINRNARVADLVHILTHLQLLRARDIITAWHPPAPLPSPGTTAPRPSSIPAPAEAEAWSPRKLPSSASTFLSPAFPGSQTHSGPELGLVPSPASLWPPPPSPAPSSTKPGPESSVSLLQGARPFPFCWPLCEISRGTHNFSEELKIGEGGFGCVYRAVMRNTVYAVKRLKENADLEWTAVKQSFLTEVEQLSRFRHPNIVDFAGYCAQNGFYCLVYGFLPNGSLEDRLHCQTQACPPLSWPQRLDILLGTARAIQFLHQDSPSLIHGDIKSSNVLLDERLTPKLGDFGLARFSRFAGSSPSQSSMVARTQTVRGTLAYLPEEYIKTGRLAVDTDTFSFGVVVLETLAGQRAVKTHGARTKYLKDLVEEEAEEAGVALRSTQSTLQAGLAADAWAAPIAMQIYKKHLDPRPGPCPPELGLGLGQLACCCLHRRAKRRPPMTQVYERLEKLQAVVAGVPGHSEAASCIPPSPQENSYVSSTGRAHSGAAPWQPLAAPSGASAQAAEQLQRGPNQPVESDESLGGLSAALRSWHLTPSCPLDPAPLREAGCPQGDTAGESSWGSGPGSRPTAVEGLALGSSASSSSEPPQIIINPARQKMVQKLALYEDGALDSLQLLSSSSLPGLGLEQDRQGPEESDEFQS

[7] = molecular target: T2, Serine/threonine-protein kinase ULK3 (Homo sapiens) (UniProt Q6PHR2); test: Selectivity interaction (KinomeScan (DiscoverX)) EUB0001619a ULK3; details: at 1 µM
T2 sequence (whole entry): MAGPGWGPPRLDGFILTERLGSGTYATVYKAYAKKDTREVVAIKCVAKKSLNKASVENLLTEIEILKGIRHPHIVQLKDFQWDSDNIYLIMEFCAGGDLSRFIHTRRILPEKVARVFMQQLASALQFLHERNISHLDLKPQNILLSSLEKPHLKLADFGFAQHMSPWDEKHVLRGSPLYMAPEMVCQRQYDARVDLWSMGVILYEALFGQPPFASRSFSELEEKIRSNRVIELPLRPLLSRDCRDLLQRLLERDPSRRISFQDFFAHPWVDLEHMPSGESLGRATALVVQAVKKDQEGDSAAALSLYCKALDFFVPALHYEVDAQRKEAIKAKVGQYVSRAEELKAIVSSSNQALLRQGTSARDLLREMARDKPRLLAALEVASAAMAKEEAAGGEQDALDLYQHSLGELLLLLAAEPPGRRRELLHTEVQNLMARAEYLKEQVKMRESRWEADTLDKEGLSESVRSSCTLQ

Sequence of RAC-alpha serine/threonine-protein kinase (P31749 whole entry): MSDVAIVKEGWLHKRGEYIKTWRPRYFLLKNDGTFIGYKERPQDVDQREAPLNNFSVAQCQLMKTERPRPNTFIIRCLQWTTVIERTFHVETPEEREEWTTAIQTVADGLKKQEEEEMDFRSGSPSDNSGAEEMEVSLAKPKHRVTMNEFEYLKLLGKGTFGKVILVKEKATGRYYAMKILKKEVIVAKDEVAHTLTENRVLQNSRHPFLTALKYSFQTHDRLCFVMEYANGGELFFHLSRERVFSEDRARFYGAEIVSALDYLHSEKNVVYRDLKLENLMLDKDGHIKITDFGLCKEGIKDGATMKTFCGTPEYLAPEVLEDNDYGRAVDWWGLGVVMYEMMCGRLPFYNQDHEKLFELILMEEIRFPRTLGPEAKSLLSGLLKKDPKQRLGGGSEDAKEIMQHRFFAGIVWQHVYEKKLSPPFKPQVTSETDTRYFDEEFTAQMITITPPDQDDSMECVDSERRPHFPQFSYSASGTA

Question: Which % of control [1] does the source give for O=C(NOC[C@H](O)CO)c1ccc(F)c(F)c1Nc1ccc(I)cc1F here?
Answer: 81%

Question: How did the % of control ([2]; at 1 µM) turn out when C=CC(=O)Nc1cc(-n2c(=O)ccc3cnc4ccc(-c5ccc(NS(C)(=O)=O)cc5)cc4c32)ccc1C was run?
Answer: 100%

Question: What about the % of control ([2]; at 10 µM) of the same compound?
Answer: 100%

Question: With CCC(=O)N1CCN(c2ccc(-n3c(=O)ccc4cnc5ccc(-c6cnc7ccccc7c6)cc5c43)cc2C(F)(F)F)CC1 as the compound, how does the % of control [3] read?
Answer: 100%

Question: And the % of control [4]?
Answer: 99%

Question: Cc1cc([C@@H](C)Nc2ccccc2C(=O)O)c2nc(N3CCOCC3)cc(=O)n2c1 [AZD-6482] was tested. Which % of control [5] did it give?
Answer: 100%

Question: Which % of control [6] does the source give for O[C@H]1CC[C@H](Nc2ncc3nc(Nc4c(F)cc(F)cc4F)n([C@H]4CCOC4)c3n2)CC1 here?
Answer: 38%

Question: With N#Cc1cccc(-c2c[nH]c3ncnc(N4CCOCC4)c23)c1 as the compound, how does the % of control [7] read?
Answer: 25%
